In patent publication US7378375B1, “Substituted pyridine herbicides” (Syngenta Crop Protection, Inc., priority 2000, dated 2008):

Key:
[1] = system: Monocotyledonous and dicotyledonous test plants; assay: Post-emergence herbicidal action, greenhouse pot test, sprayed at the 2- to 3-leaf stage, 9-level rating after 2 to 3 weeks; format: in vivo; conditions: 250 g/ha, rated after 2 to 3 weeks, 9-level scale
Experimental: Post-Emergence Herbicidal Action
Monocotyledonous and dicotyledonous test plants are grown in standard soil in pots. At the 2- to 3-leaf stage of the test plants, the test substances are sprayed at optimum dosage (500 l of water/ha) as an aqueous suspension (prepared from a wettable powder (example F3, b) according to WO 97/34485) or emulsion (prepared from an emulsion concentrate (example F1, c) according to WO 97/34485). The test plants are then grown further under optimum conditions in a greenhouse.
After a test period of 2 to 3 weeks, the test is evaluated using a 9-level scale of rating (1=complete damage, 9=no effect). Ratings of 1 to 4 (in particular 1 to 3) mean good to very good herbicidal action.

[2] = system: Monocotyledonous and dicotyledonous test plants; assay: Herbicidal action before emergence of the plants (pre-emergence action), greenhouse pot test, 9-level rating after 4 weeks; format: in vivo; set-up: key: 9-level scale: 1 = complete damage, 9 = no effect; conditions: 250 g/ha, rated after 4 weeks, 9-level scale
Experimental: Herbicidal Action Before Emergence of the Plants (Pre-Emergence Action)
Monocotyledonous and dicotyledonous test plants are sown in standard soil in pots. Immediately after sowing, the test substances are sprayed on at an optimum dosage (500 l of water/ha) as an aqueous suspension (prepared from a wettable powder (example F3, b) according to WO 97/34485) or emulsion (prepared from an emulsion concentrate (example F1, c) according to WO 97/34485). The test plants are then grown under optimum conditions in a greenhouse.
After a test period of 4 weeks, the test is evaluated using a 9-level scale of ratings (1=complete damage, 9=no effect). Ratings of 1 to 4 (in particular 1 to 3) mean good to very good herbicidal action.

SMILES	Post-emergence action rating, Abutilon [1]	Post-emergence action rating, Amaranth [1]	Post-emergence action rating, Chenop. [1]	Post-emergence action rating, Digitaria [1]	Post-emergence action rating, Echino. [1]	Post-emergence action rating, Ipopur. [1]	Post-emergence action rating, Panicum [1]	Post-emergence action rating, Xanth. [1]	Pre-emergence action rating, Abutilon [2]	Pre-emergence action rating, Amaranthus [2]	Pre-emergence action rating, Digitaria [2]	Pre-emergence action rating, Echino. [2]	Pre-emergence action rating, Panicum [2]	Pre-emergence action rating, Chenop. ([2]; Chenop.)
COc1ccccc1OCc1nc(C(F)(F)F)ccc1C(=O)C1=C(O)C2CCC(C2)C1=O (stereo not drawn) [A33-B52]	2	2	1	2	2	2	2	3	–	–	–	–	–	–
CSCCOCc1nc(C(F)(F)F)ccc1C(=O)C1=C(O)C2CCC(C2)C1=O (stereo not drawn) [A817-B52]	2	2	1	2	2	2	1	2	–	–	–	–	–	–
C[S+]([O-])CCOCc1nc(C(F)(F)F)ccc1C(=O)C1=C(O)C2CCC(C2)C1=O (stereo not drawn) [A818-B52]	2	2	1	2	3	2	2	2	–	–	–	–	–	–
CSc1nnc(SCc2nc(C(F)(F)F)ccc2C(=O)C2=C(O)CCCC2=O)s1 [A829-B1]	7	2	2	9	7	6	7	4	–	–	–	–	–	–
CSc1nnc(SCc2nc(C(F)(F)F)ccc2C(=O)C2=C(O)C3CCC(C3)C2=O)s1 (stereo not drawn) [A829-B52]	3	2	2	6	4	4	2	6	–	–	–	–	–	–
Cn1ncc(C(=O)c2ccc(C(F)(F)F)nc2COCC(F)(F)F)c1O [A834-C5]	–	–	–	–	–	–	–	–	1	2	3	1	1	–
COCC(Br)COCc1nc(C(F)(F)F)ccc1C(=O)C1=C(O)C2CCC(C2)C1=O (stereo not drawn) [A853-B52]	–	–	–	–	–	–	–	–	1	1	1	2	1	2
O=C(C1=C(O)C2CCC(C2)C1=O)c1ccc(C(F)(F)F)nc1COCc1cccs1 (stereo not drawn) [A854-B52]	2	1	1	2	2	2	1	2	–	–	–	–	–	–
O=C(C1=C(O)C2CCC(C2)C1=O)c1ccc(C(F)(F)F)nc1COCCOCc1ccccc1 (stereo not drawn) [A855-B52]	2	2	1	2	2	2	2	2	–	–	–	–	–	–
O=C(C1=C(O)C2CCC(C2)C1=O)c1ccc(C(F)(F)F)nc1COCCO (stereo not drawn) [A856-B52]	2	2	1	2	2	1	2	2	–	–	–	–	–	–
